Measured values from the supplement of paper PMC10307832.

Key:
Test in all cases: relative viability (nuclei count vs DMSO), 5 days (fraction); higher = more cells survive
AZD8055 + Olaparib = compound: COc1ccc(-c2ccc3c(N4CCOC[C@@H]4C)nc(N4CCOC[C@@H]4C)nc3n2)cc1CO [AZD8055] + O=C(c1cc(Cc2n[nH]c(=O)c3ccccc23)ccc1F)N1CCN(C(=O)C2CC2)CC1 [Olaparib] (partner 8 µM)
How it was run: (§1)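 Nuclei were stained with Hoechst during a one-step fixation (final 0.05% Triton X-100, 1% formaldehyde, 1 ug/ml Hoechst) carried out 5 days after dosing, then counted on 4× images. The cells, lung cancer lines in 1536-well plates, had been dosed by pin tool the day after seeding with one drug alone or a fixed anchor-drug dose plus five library-drug doses (not always all listed) in √10 steps. Relative viability is the nuclei count in treated wells divided by that in vehicle wells, and each value is the median of duplicate plates.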

AZD8055 + Palbociclib = compound: COc1ccc(-c2ccc3c(N4CCOC[C@@H]4C)nc(N4CCOC[C@@H]4C)nc3n2)cc1CO [AZD8055] + CC(=O)c1c(C)c2cnc(Nc3ccc(N4CCNCC4)cn3)nc2n(C2CCCC2)c1=O [Palbociclib] (partner 0.5 µM)
How it was run: as §1

AZD8055 + Alpelisib = compound: COc1ccc(-c2ccc3c(N4CCOC[C@@H]4C)nc(N4CCOC[C@@H]4C)nc3n2)cc1CO [AZD8055] + Cc1nc(NC(=O)N2CCC[C@H]2C(N)=O)sc1-c1ccnc(C(C)(C)C(F)(F)F)c1 [Alpelisib] (partner 2 µM)
How it was run: as §1

AZD8055 + Pemetrexed = compound: COc1ccc(-c2ccc3c(N4CCOC[C@@H]4C)nc(N4CCOC[C@@H]4C)nc3n2)cc1CO [AZD8055] + Nc1nc2[nH]cc(CCc3ccc(C(=O)N[C@@H](CCC(=O)O)C(=O)O)cc3)c2c(=O)[nH]1 [Pemetrexed] (partner 0.2 µM)
How it was run: as §1

Cell Line | relative viability (AZD8055 + Olaparib; first compound 0.01 µM) | relative viability (AZD8055 + Olaparib; first compound 0.03162 µM) | relative viability (AZD8055 + Olaparib; first compound 0.1 µM) | relative viability (AZD8055 + Olaparib; first compound 0.3162 µM) | relative viability (AZD8055 + Olaparib; first compound 1 µM) | relative viability (AZD8055 + Palbociclib; first compound 0.01 µM) | relative viability (AZD8055 + Palbociclib; first compound 0.03162 µM) | relative viability (AZD8055 + Palbociclib; first compound 0.1 µM) | relative viability (AZD8055 + Palbociclib; first compound 0.3162 µM) | relative viability (AZD8055 + Palbociclib; first compound 1 µM) | relative viability (AZD8055 + Alpelisib; first compound 0.01 µM) | relative viability (AZD8055 + Alpelisib; first compound 0.03162 µM) | relative viability (AZD8055 + Alpelisib; first compound 0.1 µM) | relative viability (AZD8055 + Alpelisib; first compound 0.3162 µM) | relative viability (AZD8055 + Alpelisib; first compound 1 µM) | relative viability (AZD8055 + Pemetrexed; first compound 0.01 µM) | relative viability (AZD8055 + Pemetrexed; first compound 0.03162 µM) | relative viability (AZD8055 + Pemetrexed; first compound 0.1 µM) | relative viability (AZD8055 + Pemetrexed; first compound 0.3162 µM) | relative viability (AZD8055 + Pemetrexed; first compound 1 µM)
LOU-NH91 | 1.03 | 0.913 | 0.816 | 0.633 | 0.607 | 0.531 | 0.536 | 0.589 | 0.552 | 0.497 | 0.705 | 0.669 | 0.556 | 0.537 | 0.511 | 0.466 | 0.433 | 0.5 | 0.507 | 0.469
LU99A | 0.293 | 0.226 | 0.161 | 0.183 | 0.168 | 0.312 | 0.285 | 0.167 | 0.198 | 0.2 | 0.32 | 0.261 | 0.158 | 0.189 | 0.228 | 0.227 | 0.211 | 0.235 | 0.177 | 0.169
NCI-H522 | 0.603 | 0.686 | 0.543 | 0.387 | 0.385 | 1.06 | 0.923 | 0.717 | 0.536 | 0.414 | – | – | – | – | – | 0.992 | 0.943 | 0.962 | 0.518 | 0.467
NCI-H596 | 0.752 | 0.615 | 0.459 | 0.452 | 0.514 | – | – | – | – | – | 0.479 | 0.385 | 0.348 | 0.348 | 0.324 | 0.452 | 0.456 | 0.409 | 0.402 | 0.443
NCI-H727 | 0.818 | 0.812 | 0.744 | 0.603 | 0.52 | 0.621 | 0.635 | 0.572 | 0.573 | 0.51 | 0.564 | 0.435 | 0.356 | 0.255 | 0.269 | – | – | – | – | –
NCI-H1299 | 1.06 | 1.03 | 0.889 | 0.574 | 0.353 | – | – | – | – | – | 1.17 | 1.04 | 1.06 | 0.628 | 0.468 | – | – | – | – | –
NCI-H1563 | – | – | – | – | – | – | – | – | – | – | 0.82 | 0.61 | 0.603 | 0.51 | 0.673 | 0.735 | 0.577 | 0.602 | 0.563 | 0.471
NCI-H1648 | 0.658 | 0.739 | 0.561 | 0.239 | 0.287 | 0.251 | 0.332 | 0.201 | 0.235 | 0.241 | – | – | – | – | – | 0.942 | 0.675 | 0.641 | 0.324 | 0.285
NCI-H1650 | 0.985 | 0.865 | 0.726 | 0.417 | 0.472 | 0.317 | 0.323 | 0.254 | 0.18 | 0.205 | – | – | – | – | – | 0.403 | 0.463 | 0.389 | 0.39 | 0.29
NCI-H1703 | 0.751 | 0.279 | 0.326 | 0.232 | 0.182 | – | – | – | – | – | 0.328 | 0.297 | 0.237 | 0.219 | 0.318 | – | – | – | – | –
NCI-H2342 | 0.376 | 0.439 | 0.362 | 0.309 | 0.289 | 0.489 | 0.537 | 0.458 | 0.473 | 0.426 | – | – | – | – | – | 0.748 | 0.785 | 0.542 | 0.49 | 0.549
